Values of other authors, collected in US20230121528A1, “SALMONELLA-BASED DNA VACCINES IN COMBINATION WITH AN ANTIBIOTIC” (VAXIMM AG, priority 2020, published 2023).

Tested on: glioblastoma
Details: glioblastoma patients

Substance: avastin: monoclonal antibody avastin targeting VEGF
- survival benefit: only showed benefits in progression free survival, but not in overall survival
